Source: patent US20170349532A1, “CATIONIC LIPID” (Kyowa Hakko Kirin Co., Ltd., priority 2011, published 2017)

assay: Average particle diameter of preparation (Zetasizer Nano ZS); format: physicochemical; settings: Comparative Examples 1 to 8, prepared as Example 118 with apo-b siRNA
Text: Preparations were produced using the compounds obtained in Examples 1 to 117, as follows.
APO-B siRNA was used as the nucleic acid. APO-B siRNA suppresses expression of an apolipoprotein-B (hereinafter, “apo-b”) gene and has a sense strand with the base sequence 5′-GmUCAmUCACACmUGAAmUACCAAmU-3′ (the sugars attached to the bases appended with m are 2′-O-methyl-substituted riboses), and an antisense strand with the base sequence 5′-[…]-3′ (the 5′-end is phosphorylated). The sense strand and the antisense strand were obtained from Nippon EGT, GeneDesign, Inc., Invitrogen or Hokkaido System Science Co., Ltd., and annealed to prepare the nucleic acid (hereinafter, “apo-b siRNA”).
A solution comprising the constituent components was prepared by dissolving each of the weighed samples in 90 vol % ethanol in 8.947/1.059/5.708/13.697 mmol/L [compounds 1 to 117 obtained in Examples 1 to 117/sodium 1,2-dimyristoyl-sn-glycero-3-phosphoethanolamine-N-(methoxy(polyethylene glycol)-2000) (PEG-DMPE Na,N-(carbonylmethoxypolyethylene glycol 2000)-1,2-dimyristoyl-sn-glycero-3-phosphoethanolamine sodium salt, NOF Corporation)/distearoylphosphatidyl choline (DSPC, 1,2-distearoyl-sn-glycero-3-phosphocholine, NOF Corporation)/cholesterol (Avanti Polar Lipids)]. Separately, apo-b siRNA/distilled water (24 mg/mL) was diluted with a Tris-EDTA buffer (200 mM Tris-HCl, 20 mM EDTA, Invitrogen) and a 20 mM citric acid buffer (pH 5.0) to prepare a 1.5 mg/mL apo-b siRNA aqueous solution (2 mM Tris-EDTA/20 mM citric acid buffer, pH 5.0).
The resulting lipid solution was heated to 37° C., and a 100-μL portion was transferred to a preparation container. The apo-b siRNA aqueous solution (100 μL) was then added thereto while being stirred. Then, a 20 mM citric acid buffer (containing 300 mM NaCl, pH 6.0; 200 μL) was added to the lipid nucleic acid mixed suspension (200 μL) while being stirred. The siRNA concentration was brought to 10 μM by dropping a Dulbecco phosphate buffer (DPBS, Invitrogen; 662 μL), and preparations (compositions comprising compounds 1 to 117 and the nucleic acid) were obtained.
The average particle diameter of the complex between the cationic lipis and the nucleic acid in each preparation was measured with a particle diameter measurement device (Malvern; Zetasizer Nano ZS).

SMILES | average particle diameter of the complex between the cationic lipis and the nucleic acid in the preparation
CCCCCCCC/C=C\CCCCCCCC(=O)OCCN(C)CCOC(=O)CCCCCCC/C=C\CCCCCCCC [Compound A-6, N-Methyl-N,N-bis(2-((Z)-1-oxooctadec-9-enyloxy)ethyl)amine, reference compound] | 139.5 nm

same assay, conditions: average particle diameter of cationic lipid/nucleic acid complex; Example 118 preparation: compound/PEG-DMPE Na/DSPC/cholesterol with apo-b siRNA

SMILES | Particle diameter of Preparetion
CCCCCCCC/C=C\CCCCCCCCCCOCCN(C)CCOCCCCCCCCCC/C=C\CCCCCCCC [Compound 78, N,N-bis(2-((Z)-Icos-11-enyloxy)ethyl)-N-methylamine] | 131.4 nm
CCCCC/C=C\C/C=C\CCCCCCCCO[C@H]1CNC[C@H]1OCCCCCCCC/C=C\C/C=C\CCCCC [Compound 3, (3R,4S)-3,4-bis((9Z,12Z)-Octadec-9,12-dienyloxy)pyrrolidine] | 152.8 nm
CCCCCC/C=C\CCCCCCCCO[C@@H]1CNC[C@H]1OCCCCCCCC/C=C\CCCCCC [Compound 6, (3R,4R)-3,4-bis((Z)-Hexadec-9-enyloxy)pyrrolidine] | 140.3 nm
CCCCCCCC/C=C\CCCCCCCC(=O)OCCN(CCOC(=O)CCCCCCC/C=C\CCCCCCCC)C(=O)CCN(C)C [Compound 99, 3-(Dimethylamino)-N,N-bis(2-((Z)-octadec-9-enoyloxy)ethyl)propanamido] | 129.6 nm
CCCCCCCC/C=C\CCCCCCCCOCCN(CCOCCCCCCCC/C=C\CCCCCCCC)C(=O)CCN [Compound 87, 3-Amino-N,N-bis(2-((Z)-octadec-9-enyloxy)ethyl)propanamido] | 136.3 nm
CCCCCCCC/C=C\CCCCCCCCCCO[C@@H]1CNC[C@H]1OCCCCCCCCCC/C=C\CCCCCCCC [Compound 42, (3R,4R)-3,4-bis((Z)-Icos-11-enyloxy)pyrrolidine] | 131.3 nm
CCCCC/C=C\C/C=C\CCCCCCCCOC[C@@H]1CN(C)C[C@H]1COCCCCCCCC/C=C\C/C=C\CCCCC (relative stereo) [Compound 107, trans-1-Methyl-3,4-bis(((9Z,12Z)-octadec-9,12-dienyloxy)methyl)pyrrolidine] | 139.1 nm
CCCCCCCC/C=C\CCCCCCCC(=O)OCCN(CCOC(=O)CCCCCCC/C=C\CCCCCCCC)CC(O)CO (stereo not drawn) [Compound 83, 3-(bis(2-((Z)-Octadec-9-enoyloxy)ethyl)amino)propan-1,2-diol] | 169.1 nm
CCCCCCCC/C=C\CCCCCCCCOCCN(CCOCCCCCCCC/C=C\CCCCCCCC)C(=O)CN(C)C [Compound 89, 2-(Dimethylamino)-N,N-bis(2-((Z)-octadec-9-enyloxy)ethyl)acetamide] | 121.5 nm
CCCCCCCC/C=C\CCCCCCCC(=O)OCC[N+](C)(C)CCOC(=O)CCCCCCC/C=C\CCCCCCCC.[Cl-] [Compound 81, N,N-diMethyl-N,N-bis(2-((Z)-octadec-9-enoyloxy)ethyl)aminium chloride] | 103.4 nm
CCCCCCCCCCCCCCCCCCO[C@@H]1CN(C)C[C@H]1OCCCCCCCCCCCCCCCCCC [Compound 46, (3R,4R)-1-Methyl-3,4-bis(octadecyloxy)pyrrolidine] | 192.0 nm
CCCCC/C=C\C/C=C\CCCCCCCCO[C@@H]1CN(CCC(N)=O)C[C@H]1OCCCCCCCC/C=C\C/C=C\CCCCC [Compound 57, 3-((3R,4R)-3,4-bis((9Z,12Z)-Octadec-9,12-dienyloxy)pyrrolidin-1-yl)propanamide] | 159.2 nm
CCCCCCCCCCCCCCCCO[C@@H]1CN(C)C[C@H]1OCCCCCCCCCCCCCCCC [Compound 45, (3R,4R)-3,4-bis(Hexadecyloxy)-1-methylpyrrolidine] | 136.3 nm
CCCCC/C=C\C/C=C\CCCCCCCCOC[C@@H]1C[N+](C)(C)C[C@H]1COCCCCCCCC/C=C\C/C=C\CCCCC.[Cl-] (relative stereo) [Compound 112, trans-1,1-Dimethyl-3,4-bis(((9Z,12Z)-octadec-9,12-dienyloxy)methyl)pyrrolidinium chloride] | 119.2 nm
